Literature values as cited in patent US7767227B2, “Galenical form for oral administration with prolonged release of molsidomine” (Therabel Pharmaceuticals Limited, priority 2000, dated 2010).
Read-outs that look alike come from different tables or passages of the source.

## CCOC(=O)[N-]c1cn(N2CCOCC2)n[o+]1 [Molsidomine, N-(ethoxycarbonyl)-3-(4-morpholinyl)sydnone imine]
4 mg dose
  period of action: 4 to 5 h
8 mg dose
  period of action: 10 to 12 h
